Literature values in patent US20020156056A1, “Oral fast-dissolving compositions for dopamine agonists” (priority 1997, published 2002).

Assays:
[1] = in vivo

Share of the drug converted to dopamine in peripheral tissues [1] | Share of the drug that enters the brain [1] | SMILES | Adverse effects of intranasal administration (intranasal) | Adverse findings in long-term studies of oral tablets (oral tablets, studies stopped after 7-10 days) | Adverse effects of sub-lingual tablets (sub-lingual tablets, prolonged use)
 |  | CN1CCc2cccc3c2C1Cc1ccc(O)c(O)c1-3 (centres unmarked) [apomorphine, 5,6,6a,7-tetrahydro-6-methyl-4H-dibenzo[de,g]quinoline-10,11-diol] | transient nasal blockage, burning sensation and swollen nose and lips | unexplained rises in blood urea nitrogen | severe stomatitis on prolonged use with buccal mucosal ulceration in half the patients treated
about 95% | less than 1% | N[C@@H](Cc1ccc(O)c(O)c1)C(=O)O [levodopa] |  |  | 
